Where “and” joins values, the source holds several entries; their conditions need not be identical. Equal entries are not always repeated.
Assay: activity coefficient (dimensionless); of the first substance listed, at infinite dilution; xn = mol fraction of the nth substance listed
Details: Liquid, Headspace solid phase microextraction, x1 = 0

SMILES | activity coefficient (298.15 K) | activity coefficient (308.15 K) | activity coefficient (318.15 K)
C1CCCC1 [cyclopentane] + O=Cc1ccco1 | 11.6 and 11.4 | 10.7 and 10.1 | 10.4 and 9.3
CCCCCC [hexane] + O=Cc1ccco1 | 25.6 and 25.3 | 23.6 and 22.8 | 22.2 and 21.2
Cc1ccccc1 [toluene] + O=Cc1ccco1 | 3.72 and 3.46 | 3.79 and 3.33 | 5.3 and 3.8
c1ccccc1 [benzene] + O=Cc1ccco1 | 2.61 and 2.45 | 2.93 and 2.4 | 3.87 and 2.89
CCCCCCC [heptane] + O=Cc1ccco1 | 32 and 31.6 | 30.8 and 29.6 | 28.3 and 26.4
Cc1ccccc1C [1,2-dimethylbenzene] + O=Cc1ccco1 | 4.12 and 3.74 | 4.44 and 3.55 | 6.77 and 4.61
CCc1ccccc1 [ethylbenzene] + O=Cc1ccco1 | 4.84 and 4.52 | 5.02 and 4.35 | 7.21 and 5.25
C1CCCCC1 [cyclohexane] + O=Cc1ccco1 | 15.7 and 15.5 | 13.5 and 12.9 | 12 and 10.9
CCCCC [pentane] + O=Cc1ccco1 | 20.8 and 20.4 | 17.9 and 16.9 | 16.8 and 15
